Data as given in PubChem BioAssay AID248 (DTP/NCI, 2004).
Where “and” joins values, the source holds several entries; their conditions need not be identical. Equal entries are not always repeated. Toxic doses and inconclusive results are not listed.

Tested on: L1210 leukemia ip in BDF1 mice, survival T/C
Experiment: NCI In Vivo Anticancer Drug Screen. Data for tumor model L1210 Leukemia (intraperitoneal) in B6D2F1 (BDF1) mice
Settings: endpoint: mean survival time, higher = longer survival
Summary of the method: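 Tumor cells were implanted, animals were treated, and survival was followed. The result divides the treated measurement by the vehicle-control measurement.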

## ClCCCN1CCN(CCCCl)CC1
dose: 6.25 mg/kg/injection, schedule: Q01DX009 (ip), vehicle: distilled water + alcohol
  T/C: 93 % of control
dose: 12.5 mg/kg/injection, schedule: Q01DX009 (ip), vehicle: distilled water + alcohol
  T/C: 95 % of control
dose: 25.0 mg/kg/injection, schedule: Q01DX009 (ip), vehicle: distilled water + alcohol
  T/C: 101 % of control
dose: 50.0 mg/kg/injection, schedule: Q01DX009 (ip), vehicle: distilled water + alcohol
  T/C: 113 % of control
dose: 100.0 mg/kg/injection, schedule: Q01DX009 (ip), vehicle: distilled water + alcohol
  T/C: 114 % of control

## CN(C)c1ccc2[nH]c(=O)c3ccccc3c2c1
dose: 75.0 mg/kg/injection, schedule: Q01DX001 (ip), vehicle: carboxymethylcellulose (CMC)
  T/C: 101 % of control

## Nc1ncnc(N)c1NC(=O)c1cc(OCc2ccccc2)cc(OCc2ccccc2)c1
dose: 100.0 mg/kg/injection, schedule: Q04DX003 (ip), vehicle: DMSO
  T/C: 94 % of control
dose: 200.0 mg/kg/injection, schedule: Q04DX003 (ip), vehicle: DMSO
  T/C: 102 % of control
dose: 400.0 mg/kg/injection, schedule: Q04DX003 (ip), vehicle: DMSO
  T/C: 86 % of control

## O=[N+]([O-])c1ccc(N=Cc2ccc(Cl)cc2Cl)c(O)c1
dose: 100.0 mg/kg/injection, schedule: Q04DX002 (ip), vehicle: saline with Tween-80
  T/C: 86 % of control
dose: 200.0 mg/kg/injection, schedule: Q04DX002 (ip), vehicle: saline with Tween-80
  T/C: 120 % of control
dose: 400.0 mg/kg/injection, schedule: Q04DX002 (ip), vehicle: saline with Tween-80
  T/C: 99 % of control

## O=C(CC(C(=O)c1ccccc1)N1CC1)c1ccccc1 (configuration not stated)
dose: 50.0 mg/kg/injection, schedule: Q01DX009 (ip), vehicle: saline sonified
  T/C: 91 % of control
dose: 50.0 mg/kg/injection, schedule: Q04DX003 (ip), vehicle: saline sonified
  T/C: 96 % of control
dose: 100.0 mg/kg/injection, schedule: Q01DX009 (ip), vehicle: saline sonified
  T/C: 94 % of control
dose: 100.0 mg/kg/injection, schedule: Q04DX003 (ip), vehicle: saline sonified
  T/C: 92 % of control
dose: 200.0 mg/kg/injection, schedule: Q04DX003 (ip), vehicle: saline sonified
  T/C: 97 % of control

## CCOc1cc(OCC)c(OCC)cc1/C=C1\N=C(c2ccccc2)OC1=O
dose: 100.0 mg/kg/injection, schedule: Q04DX002 (ip), vehicle: Klucel (hydroxypropylcellulose) (HPC)
  T/C: 96 % of control
dose: 200.0 mg/kg/injection, schedule: Q04DX002 (ip), vehicle: Klucel (hydroxypropylcellulose) (HPC)
  T/C: 96 % of control
dose: 400.0 mg/kg/injection, schedule: Q04DX002 (ip), vehicle: Klucel (hydroxypropylcellulose) (HPC)
  T/C: 96 % of control

## CCC1CN2C(=N1)c1ccccc1-c1cc(Br)ccc12 (configuration not stated)
dose: 2.5 mg/kg/injection, schedule: Q01DX009 (ip), vehicle: Klucel (hydroxypropylcellulose) (HPC)
  T/C: 104 % of control
dose: 2.5 mg/kg/injection, schedule: Q04DX003 (ip), vehicle: Klucel (hydroxypropylcellulose) (HPC)
  T/C: 100 % of control
dose: 5.0 mg/kg/injection, schedule: Q01DX009 (ip), vehicle: Klucel (hydroxypropylcellulose) (HPC)
  T/C: 98 % of control
dose: 5.0 mg/kg/injection, schedule: Q04DX003 (ip), vehicle: Klucel (hydroxypropylcellulose) (HPC)
  T/C: 100 % of control
dose: 10.0 mg/kg/injection, schedule: Q01DX009 (ip), vehicle: Klucel (hydroxypropylcellulose) (HPC)
  T/C: 116 % of control
dose: 10.0 mg/kg/injection, schedule: Q04DX003 (ip), vehicle: Klucel (hydroxypropylcellulose) (HPC)
  T/C: 96 % of control

## CC(=O)CC(=O)Nc1cccc(O)c1
dose: 200.0 mg/kg/injection, schedule: Q01DX009 (ip), vehicle: Klucel (hydroxypropylcellulose) (HPC)
  T/C: 91 % of control
dose: 400.0 mg/kg/injection, schedule: Q01DX009 (ip), vehicle: Klucel (hydroxypropylcellulose) (HPC)
  T/C: 100 % of control

## Cc1ccnc(NS(=O)(=O)c2ccc(N=NC3SC(=S)NC3=O)cc2)n1 (configuration not stated)
dose: 75.0 mg/kg/injection, schedule: Q01DX001 (ip), vehicle: saline
  T/C: 100 % of control
dose: 150.0 mg/kg/injection, schedule: Q01DX001 (ip), vehicle: saline
  T/C: 101 % of control
dose: 300.0 mg/kg/injection, schedule: Q01DX001 (ip), vehicle: saline
  T/C: 98 % of control

## CCCCCCCCCCCN1C(=O)c2ccccc2S1(=O)=O
dose: 222.0 mg/kg/injection, schedule: Q01DX Z (ip), vehicle: methylcellulose (MC)
  T/C: 91 % of control
dose: 333.0 mg/kg/injection, schedule: Q01DX Z (ip), vehicle: methylcellulose (MC)
  T/C: 105 % of control
dose: 500.0 mg/kg/injection, schedule: Q01DX Z (ip), vehicle: methylcellulose (MC)
  T/C: 102 % of control

## COc1ccccc1N1CCN(CCc2c[nH]c3cc4c(cc23)OCO4)CC1
dose: 3.12 mg/kg/injection, schedule: Q01DX009 (ip), vehicle: Klucel (hydroxypropylcellulose) (HPC)
  T/C: 103 % of control
dose: 6.25 mg/kg/injection, schedule: Q01DX009 (ip), vehicle: Klucel (hydroxypropylcellulose) (HPC)
  T/C: 97 % of control and 110 % of control
dose: 12.5 mg/kg/injection, schedule: Q01DX009 (ip), vehicle: Klucel (hydroxypropylcellulose) (HPC)
  T/C: 106 % of control and 111 % of control and 120 % of control
dose: 12.5 mg/kg/injection, schedule: Q04DX003 (ip), vehicle: Klucel (hydroxypropylcellulose) (HPC)
  T/C: 94 % of control
dose: 25.0 mg/kg/injection, schedule: Q01DX009 (ip), vehicle: Klucel (hydroxypropylcellulose) (HPC)
  T/C: 89 % of control
dose: 25.0 mg/kg/injection, schedule: Q01DX015 (ip), vehicle: carboxymethylcellulose (CMC)
  T/C: 102 % of control and 106 % of control
dose: 25.0 mg/kg/injection, schedule: Q04DX003 (ip), vehicle: Klucel (hydroxypropylcellulose) (HPC)
  T/C: 102 % of control
dose: 50.0 mg/kg/injection, schedule: Q01DX015 (ip), vehicle: carboxymethylcellulose (CMC)
  T/C: 104 % of control
dose: 50.0 mg/kg/injection, schedule: Q04DX003 (ip), vehicle: Klucel (hydroxypropylcellulose) (HPC)
  T/C: 105 % of control
dose: 100.0 mg/kg/injection, schedule: Q01DX009 (ip), vehicle: Klucel (hydroxypropylcellulose) (HPC)
  T/C: 112 % of control
dose: 100.0 mg/kg/injection, schedule: Q01DX015 (ip), vehicle: carboxymethylcellulose (CMC)
  T/C: 118 % of control
dose: 100.0 mg/kg/injection, schedule: Q04DX003 (ip), vehicle: Klucel (hydroxypropylcellulose) (HPC)
  T/C: 102 % of control

## COCCOC1=C(N2CC2)C(=O)C(OCCOC)=C(N2CC2)C1=O
dose: 0.09 mg/kg/injection, schedule: Q01DX009 (ip), vehicle: saline
  T/C: 96 % of control
dose: 0.17 mg/kg/injection, schedule: Q01DX009 (ip), vehicle: saline
  T/C: 106 % of control
dose: 0.33 mg/kg/injection, schedule: Q01DX009 (ip), vehicle: saline
  T/C: 153 % of control
dose: 0.66 mg/kg/injection, schedule: Q01DX009 (ip), vehicle: saline
  T/C: 183 % of control
dose: 1.0 mg/kg/injection, schedule: Q01DX Z (ip), vehicle: saline
  T/C: 117 % of control
dose: 1.25 mg/kg/injection, schedule: Q01DX001 (ip), vehicle: saline
  T/C: 112 % of control
dose: 1.32 mg/kg/injection, schedule: Q01DX009 (ip), vehicle: saline
  T/C: 150 % of control
dose: 2.0 mg/kg/injection, schedule: Q01DX Z (ip), vehicle: saline
  T/C: 150 % of control
dose: 2.27 mg/kg/injection, schedule: Q01DX009 (ip), vehicle: saline
  T/C: 153 % of control
dose: 3.0 mg/kg/injection, schedule: Q01DX001 (ip), vehicle: saline
  T/C: 110 % of control
dose: 3.78 mg/kg/injection, schedule: Q01DX009 (ip), vehicle: saline
  T/C: 195 % of control
dose: 4.0 mg/kg/injection, schedule: Q01DX Z (ip), vehicle: saline
  T/C: 150 % of control
dose: 5.55 mg/kg/injection, schedule: Q01DX001 (ip), vehicle: saline
  T/C: 106 % of control
dose: 6.0 mg/kg/injection, schedule: Q01DX001 (ip), vehicle: saline
  T/C: 119 % of control
dose: 6.3 mg/kg/injection, schedule: Q01DX009 (ip), vehicle: saline
  T/C: 185 % of control
dose: 8.0 mg/kg/injection, schedule: Q01DX Z (ip), vehicle: saline
  T/C: 91 % of control
dose: 10.0 mg/kg/injection, schedule: Q01DX001 (ip), vehicle: saline
  T/C: 150 % of control and 176 % of control

## CSc1cc(-c2ccc(Cl)cc2)s[s+]1
dose: 12.5 mg/kg/injection, schedule: Q01DX009 (ip), vehicle: saline with Tween-80
  T/C: 95 % of control
dose: 25.0 mg/kg/injection, schedule: Q01DX009 (ip), vehicle: saline with Tween-80
  T/C: 90 % of control
dose: 25.0 mg/kg/injection, schedule: Q04DX003 (ip), vehicle: saline with Tween-80
  T/C: 100 % of control
dose: 50.0 mg/kg/injection, schedule: Q01DX009 (ip), vehicle: saline with Tween-80
  T/C: 97 % of control
dose: 50.0 mg/kg/injection, schedule: Q04DX003 (ip), vehicle: saline with Tween-80
  T/C: 103 % of control
dose: 100.0 mg/kg/injection, schedule: Q04DX003 (ip), vehicle: saline with Tween-80
  T/C: 98 % of control and 86 % of control

## CNC(=S)N/N=C/c1cnccn1
dose: 50.0 mg/kg/injection, schedule: Q01DX001 (ip), vehicle: saline
  T/C: 100 % of control
dose: 100.0 mg/kg/injection, schedule: Q01DX001 (ip), vehicle: saline
  T/C: 100 % of control
dose: 200.0 mg/kg/injection, schedule: Q01DX001 (ip), vehicle: saline
  T/C: 104 % of control
